Target: T1, GmMAN19-1 (Glycine max, UniProt I1NBK5, Q294W)
T1 construct: gene LOC100787923; mature form, signal peptide 1-27 removed; pGEX-4T-1 (EcoRI/XhoI) N-terminal GST fusion from E. coli BL21(DE3), GST cut with thrombin leaving N-terminal Gly-Ser; ~40 kDa; 371 residues in the crystal structure
T1 sequence (I1NBK5 28-410 Q294W): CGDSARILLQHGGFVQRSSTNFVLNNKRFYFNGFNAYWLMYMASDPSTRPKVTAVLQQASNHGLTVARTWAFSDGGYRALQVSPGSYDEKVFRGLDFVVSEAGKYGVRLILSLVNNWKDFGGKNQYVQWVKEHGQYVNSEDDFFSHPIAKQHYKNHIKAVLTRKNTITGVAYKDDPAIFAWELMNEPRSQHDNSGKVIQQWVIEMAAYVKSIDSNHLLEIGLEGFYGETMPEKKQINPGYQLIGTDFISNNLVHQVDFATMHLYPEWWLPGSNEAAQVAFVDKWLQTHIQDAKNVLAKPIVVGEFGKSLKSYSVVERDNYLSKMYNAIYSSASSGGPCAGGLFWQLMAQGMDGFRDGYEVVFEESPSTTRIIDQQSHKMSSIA
Assay: TLC product profile of M5 conversion
Assay type: biochemical
Details: 1 μM enzyme, 25 mM M5, pH 4.6, 40 °C (optimal assay conditions); hydrolysis and transglycosylation

OC[C@H]1O[C@@H](O[C@H]2[C@H](O)[C@H](O)[C@H](O[C@H]3[C@H](O)[C@H](O)[C@H](O[C@H]4[C@H](O)[C@H](O)[C@H](O[C@H]5[C@H](O)[C@H](O)C(O)O[C@@H]5CO)O[C@@H]4CO)O[C@@H]3CO)O[C@@H]2CO)[C@@H](O)[C@@H](O)[C@@H]1O (stereo partly shown) [M5, mannopentaose]
TLC product profile of M5 conversion: the Q267W mutant displayed an altered transglycosylation profile, generating shorter-chain oligosaccharides

— paper PMC12512182, “Unveiling the Structural and Biochemical Characteristics of an Acidophilic β‑Mannanase from Soybean (Glycine max)” (Journal of Agricultural and Food Chemistry, 2025)
